Assay results as given in patent US4093734A, “Amino-benzoic acid amides” (Boehringer Ingelheim GmbH, priority 1975, dated 1978).
Structures can show the parent of a compound that is named as a salt.

Columns and labels:
[1] = tested on: hindlimb tonic extensor component of the maximal seizure pattern; test: Anticonvulsive activity in mice (maximal electroshock seizure); format: in vivo; settings: Mus musculus, po, p.o.
Description: Male mice with body weights between 20 and 26 gm were used as experimental animals. They were allowed free access to food (Altromin®) and water up to one hour before administration of the test compound. Tests were carried out by using the maximal electroshock seizure pattern[Swinyard, Brown and Goodman, J. Pharmacol. exp. Ther. 106, 319 (1952)]. The electroshock apparatus was constructed according to Woodbury and Davenport […]. The electric impulses (50 Hz A.C., 50 mA, 0.2 sec) were delivered via steel ball electrodes covered with buckskin and moistened with 0.9% sodium chloride solution placed on the heads and over the eyes of the mice. The test is a measure of the ability of anticonvulsive drugs to abolish the hindlimb tonic extensor component of the maximal seizure pattern induced by electric stimulation. The test compound was administered either as the free base or as the hydrochloride. The free base was suspended in 1% tylose, and the hydrochloride was dissolved in distilled water. […] Control groups received only the suspension agent or solvent orally. 30, 150 and 300 minutes after administration all animals were shocked.

[2] = tested on: drinking frequency of thirsty animals; test: Anxiolytic activity (drinking frequency of thirsty naive rats, electro-shock); format: in vivo; settings: 10 mgm/kg orally, one hour before testing; for Shocks/animal, Treated animals: 3-minute session; for Shocks/animal, Difference (treated animals vs controls): ^+ significant difference compared with control group, (A, C, H, I, K), ° difference compared with control group, p >0.1 (B, D, E, F, J), G unmarked
Description: In their experiments, the drinking frequency of thirsty animals served as a measure for anxiety-relieving effects. Female rats with body weights between 150 and 170 gm were used as experimental animals. Food was available at all times, whereas they were deprived of water for 48 hours prior to the test session. The test apparatus was an opaque plastic box (24 × 24 × 22 cm), provided with a plexiglass cover and a […] floor. The metal drinking tube of a 250 ml-bottle covered with a hard plastic projected 2 cm from the wall into the box, the tube being attached to one side at a height of 6.5 cm. A piece of 0.2 cm at the tip of the tube was not plastic-covered. An electrical circuit was connected between the tube and the grid floor. Whenever a rat closed the circuit by licking the tube, each lick was counted electronically. At every 20th lick the animal received an electro-shock (40 V, 10 mA A.C.) via the tube ending and the grid. After the first 20 licks a time-counter was switched on, finishing the test after 3 minutes. Within this period the drinking frequency of each animal was recorded as the number of shocks delivered during the 3-minute session. […] The control groups received only the solvent or suspension agent. Statistical comparisons were made, using the Mann-Whitney-U-test (Siegel: Nonparametric Statistics, McGraw-Hill, 1956).

[3] = Acute toxicity in the mouse after intravenous administration; settings: in vivo, i.v., mice, observed 14 days
Description: 5 female and 5 male mice per dose, with body weights between 20 and 26 gm, served as test animals. The animals had access to food and drinking water ad libitum.
Compounds D, E, I and J were dissolved in distilled water, compounds A, B and C in 0.2% tartaric acid, and compound G in 15% propylene glycol.
The injected volume at the dosage level of 50 mgm/kg i.v. amounted to 0.1 ml/10 gm of animal. When the dosage was increased or diminished by 10 mgm/kg i.v., the volume was increased or diminished by […], respectively. Control groups of 10 animals each were only treated with the solvent.
The LD50 -values were determined according to the graphic-statistical method of Litchfield and Wilcoxon [(J. Pharmacol. exp. Therap. 96, 99, (1949)].

[4] = 0.5 h, 30 min. after administration
[5] = 2.5 h, 150 min. after administration
[6] = 5 h, 300 min. after administration

SMILES | ED50 [1, 4] [mg/kg] | ED50 [1, 5] [mg/kg] | ED50 [1, 6] [mg/kg] | Shocks/animal, Treated animals [2] [Shocks/animal] | Shocks/animal, Difference (treated animals vs controls) [2] [Shocks/animal] | LD50 at 336 h [3] [mg/kg]
CN(C(=O)c1ccc(N)cc1Cl)C1CCCCC1 [H, 4-amino-2-chloro-N-cyclohexyl-N-methyl-benzoic acid amide] | 200 | 155 | 200 | 7.8 | 4.6 | 
Nc1c(C(=O)NCc2cccnc2)cc(Cl)cc1C(F)(F)F [K, 2-amino-5-chloro-N-[pyridyl-(3)-methyl]-3-trifluoromethyl-benzoic acid amide] | > 200 | 70 | 73 | 9.6 | 6.1 | 
CCN1CCCC1CNC(=O)c1cc(Cl)c(N)c(C(F)(F)F)c1 (stereo not drawn) [J, N-[1-ethyl-pyrrolidyl-(2)-methyl]-4-amino-3-chloro-5-trifluoromethyl-benzoic acid amide hydrochloride] | 62 | 64 | 82 | 7.2 | 3.6 | 33.5
CCN1CCCC1CNC(=O)c1cc(Br)cc(Cl)c1N (stereo not drawn) [E, N-[1-ethyl-pyrrolidyl-(2)-methyl]-2-amino-5-bromo-3-chloro-benzoic acid amide hydrochloride] | 44 | 68 | 109 | 7.5 | 4.5 | 25
Cl.Nc1ccc(C(=O)NCc2ccccc2)c(Cl)c1 [G, 4-amino-N-benzyl-2-chloro-benzoic acid amide hydrochloride] | 68 | 133 | 200 | 7.1 | 3.8 | 48
Cl.Nc1ccc(C(=O)NC2CCCCC2)c(Cl)c1 [F, 4-amino-2-chloro-N-cyclohexyl-benzoic acid amide hydrochloride] | 38 | 50 | 116 | 5.3 | 2.0 | 
CCN1CCCC1CNC(=O)c1cc(C)cc(Cl)c1N (stereo not drawn) [A, N-[1-ethyl-pyrrolidyl-(2)-methyl]-2-amino-3-chloro-5-methyl-benzoic acid amide] | 28 | 60 | 102 | 7.1 | 3.6 | 28.6
CCN1CCCC1CNC(=O)c1cc([N+](=O)[O-])cc(Cl)c1N (stereo not drawn) [B, N-[1-ethyl-pyrrolidyl-(2)-methyl]-2-amino-3-chloro-5-nitro-benzoic acid amide] | 78 | 130 | 178 | 4.9 | 1.2 | 39
CCN1CCCC1CNC(=O)c1cc(Cl)cc(C(F)(F)F)c1N (stereo not drawn) [I, N-[1-Ethyl-pyrrolidyl-(2)-methyl]-2-amino-5-chloro-3-trifluoromethyl-benzoic acid amide hydrochloride] | 72 | 100 | 124 | 7.5 | 4.6 | 52.5
CCN1CCCC1CNC(=O)c1cc(F)c(N)c(Cl)c1 (stereo not drawn) [Compound C, N-[1-ethyl-pyrrolidyl-(2)-methyl]-4-amino-3-chloro-5-fluoro-benzoic acid amide] | 37 | 50 | 128 | 6.7 | 3.9 | 28.5
CCN1CCCC1CNC(=O)c1cc(Cl)cc(Cl)c1N (stereo not drawn) [D, N-[1-ethyl-pyrrolidyl-(2)-methyl]-2-amino-3,5-dichloro-benzoic acid amide hydrochloride] | 35 | 54 | 109 | 6.8 | 3.1 | 31.5
